Among the data in paper PMC6007937, “A cell-based infection assay identifies efflux pump modulators that reduce bacterial intracellular load” (PLoS Pathogens, 2018) are Kd values, retold here.

Like-named read-outs stand apart in the source and are kept apart here.

The target in this test is AcrB (Escherichia coli, UniProt P31224). Nature of the test: isothermal titration calorimetry (ITC). The class given is binding.
AcrB, sequence (P31224 whole entry): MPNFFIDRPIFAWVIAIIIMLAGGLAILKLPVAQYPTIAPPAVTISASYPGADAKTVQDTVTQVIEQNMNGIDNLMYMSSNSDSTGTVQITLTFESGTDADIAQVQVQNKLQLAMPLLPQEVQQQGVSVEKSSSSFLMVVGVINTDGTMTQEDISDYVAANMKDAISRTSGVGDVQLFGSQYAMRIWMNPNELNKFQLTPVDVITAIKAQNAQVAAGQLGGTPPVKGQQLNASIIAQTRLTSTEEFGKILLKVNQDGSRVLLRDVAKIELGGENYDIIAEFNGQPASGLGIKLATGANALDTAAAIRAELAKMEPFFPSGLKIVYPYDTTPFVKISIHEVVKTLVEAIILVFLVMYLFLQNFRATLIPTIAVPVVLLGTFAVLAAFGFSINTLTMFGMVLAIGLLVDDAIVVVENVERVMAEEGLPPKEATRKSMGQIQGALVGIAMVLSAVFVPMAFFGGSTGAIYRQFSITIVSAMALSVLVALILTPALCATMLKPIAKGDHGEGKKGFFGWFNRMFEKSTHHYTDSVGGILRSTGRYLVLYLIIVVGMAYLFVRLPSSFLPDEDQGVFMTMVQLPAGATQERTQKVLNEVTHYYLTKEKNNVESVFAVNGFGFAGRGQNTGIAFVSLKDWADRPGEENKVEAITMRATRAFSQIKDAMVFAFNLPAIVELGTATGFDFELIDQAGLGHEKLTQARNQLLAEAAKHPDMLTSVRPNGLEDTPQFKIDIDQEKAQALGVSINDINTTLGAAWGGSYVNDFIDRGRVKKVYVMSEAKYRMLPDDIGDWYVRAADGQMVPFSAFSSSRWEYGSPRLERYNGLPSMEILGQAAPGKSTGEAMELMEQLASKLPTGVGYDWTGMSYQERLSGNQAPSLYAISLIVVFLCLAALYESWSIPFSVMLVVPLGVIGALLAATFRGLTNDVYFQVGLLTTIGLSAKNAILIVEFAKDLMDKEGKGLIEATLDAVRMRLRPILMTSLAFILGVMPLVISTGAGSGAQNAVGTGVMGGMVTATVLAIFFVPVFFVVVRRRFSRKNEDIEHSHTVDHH

As for `CC(C)(C)c1nc(NC(=N)N)sc1Br` [EPM30], under “read-out: KD”, the Kd was found to be 1790 ± 370 nM.
In turn, `OC(COc1ccc(Cl)c(Cl)c1)CN1CCC(Nc2nccc(C(F)(F)F)n2)CC1` (stereo not drawn) [EPM35] showed a Kd of 290 ± 30 nM.
`Cc1ccc(Sc2cccc3nc(N)nc(N)c23)cc1` [EPM43]: the Kd (read-out: KD) stood at 560 ± 60 nM.
